One molecule from US20150051246A1 (priority 2013, published 2015) can be followed below.

One experiment relates to male C57BL/6NCrl mice. Briefly: Object Location Task (OLT), spatial memory, 24 h retention interval. It is filed as in vivo. The following applies: for d2 index, discrimination index for T2: 3 h after T1, 24 h interval. From the text:
The objective of this study was to evaluate the cognitive improvement effects of Roflumilast on spatial memory employing Object Location Task (OLT) in male C57BL/6NCrl mice. Roflumilast was compared with data of the already established PDE4 inhibitor Rolipram in the same model.
Twenty-four 7 month-old male C57BL/6NCrl mice (Charles River, L'Arbresle, France) were used (average body weights: 27.6 g). The animals were kept under a 12/12-hour light/dark cycle (lights on from 07.00 pm to 07.00 am) with free access to food and water. All testing was done between 09.00 am and maximally 06.00 pm.
Both rolipram (Sigma-Aldrich St. Louis, USA; MW 275.34) and roflumilast (Biocrea, Radebeul, Germany; MW 403.21) were dissolved in dimethylsulfoxide (DMSO) and kept at 4° C.; this stock solution was used for further dilutions in 0.5% methylcellulose. Each of rolipram and roflumilast is used in form of its free base. All injected solutions consisted of 0.5% methylcellulose with a fixed DMSO percentages (1.2%) (vehicle).
For the Object Location Task (OLT), doses of 0.01 mg/kg, 0.03 mg/kg and 0.1 mg/kg of Rolipram or Roflumilast or vehicle were administered subcutaneously (s.c.). Based on previous findings, PDE4 inhibitor single administration was performed 3 hours after the first trial as this has an optimum effect on object memory performance. The injection volume was 5 μl/g.
The OLT apparatus consisted of a circular arena, 40 cm in diameter. Half of the 40 cm transparent polyvinyl chloride wall was covered from the outside with white paper. Two objects were placed symmetrically about 10 cm away from the wall on the separation line, between the transparent and covered side of the arena. Four different sets of objects were available: (1) a cone made of brass (maximal diameter 6 cm and total height 3.8 cm), (2) a transparent glass bottle (diameter 2.7 cm, height 8.5 cm) filled with sand and water, (3) a massive metal cube (2.5 cm×5 cm×7.5 cm) with two holes (diameter 1.5 cm), and (4) a massive aluminum cube with a tapering top (4.5 cm×4.5 cm×8.5 cm).
A testing session comprised two trials of 4 minutes. Before each trial, mice were placed in an empty Makrolon cage (incubation cage) for the same amount of time as the trial (4 min). During the first trial (T1), two identical objects were placed symmetrically about 10 cm away from the wall on the separation line between the transparent and covered side of the arena. After the first exploration period of 4 min, the mouse was put back in its home cage. Mice then received treatment at 3 hours post T1. Subsequently, after a predetermined delay interval (24 h), the mouse was placed in the apparatus for the second trial of 4 min (T2). Two identical objects as in T1 were used; one object was placed in the previously used position, whereas the other was placed in a novel position. The novel position of the object could either be a fixed distance towards the front or a fixed distance towards the back of the arena for both objects. The times spent exploring each object during T1 and T2 were recorded manually using a personal computer. All objects and locations were used in a balanced manner to exclude possible object and/or location preferences. To avoid olfactory cues, the objects were thoroughly cleaned with 70% ethanol after each trial. The testing order of conditions was determined randomly.
The measurements reflected the time spent by the mice in exploring each object during T1 and T2. The time spent in exploring the two identical samples in T1 were represented by ‘a1’ and ‘a2’, respectively. The time spent in exploring the sample and the new object in T2 were represented by ‘a’ and ‘b’, respectively. From these exploration times the following variables were calculated: e1, e2, and d2 (Table 1). The d2 index is a relative measure of discrimination corrected for exploratory activity. […]

For a further experiment, the system named is healthy adults. As to the kind of experiment: Verbal Learning Task (VLT) in healthy adults, 18 to 35 years. It is filed as in vivo, human. From the text:
The study utilized Verbal Learning Task (VLT) to analyze the increased number of words remembered following roflumilast administration. The VLT consisted of displaying 30 monosyllable words on a computer screen for a period of 60 seconds. Immediately after the presentation of the words on the computer screen subjects were asked to report as many words as they could recall by memory. This process (presentation and recall) was repeated further two times (VLT, immediate recall, 3 trials). In addition, 45 min and 24 h after the last presentation, subjects were again asked to report as many words as they could recall by memory (VLT, delayed recall 45 min and 24 h). The set of three recall trials was conducted 60 minutes following administration of the roflumilast therapy
Statistical Data Analyses Human data was analyzed using IBM SPSS Statistics version 20. General Linear Models for repeated measures were applied with the placebo condition included as contrast. Statistical outcomes for Tests of Within-Subjects Effects and Tests of Within-Subjects Contrasts were regarded for immediate and delayed free recall scores and for the summed immediate recall score (i.e. immediate 1+immediate 2+immediate 3). The factor Treatment (4 levels; placebo, roflumilast 100 mcg, roflumilast 300 mcg and roflumilast 1000 mcg) was included as a within subjects factor. For the analysis of the EEG data, the factor Channel (5 levels; Fz, FCz, Cz, CPz, and Pz) was included as a second within subjects factor. Peak and latency values of three memory related ERP's were analysed; i.e. P300, N400 and P600. In case of significant findings (p<0.05) post-hoc t-tests were performed to reveal which of the five midline electrodes contributed to the effect

The structures appear in SMILES notation.

Consider `O=C(Nc1c(Cl)cncc1Cl)c1ccc(OC(F)F)c(OCC2CC2)c1` [roflumilast, N-(3,5-dichloropyridin-4-yl)-3-cyclopropylmethoxy-4-difluoromethoxybenzamide], for which the results for the “d2 index, discrimination index for T2” value with male C57BL/6NCrl mice (0.01 mg/kg s.c.), with male C57BL/6NCrl mice (0.03 mg/kg s.c.) and in the experiment with male C57BL/6NCrl mice (0.1 mg/kg s.c.) were 0.04, 0.34 and 0.00, respectively. The “dose effective in improving spatial memory” value with male C57BL/6NCrl mice (s.c.) was 0.03 mg/kg. The “effect on spatial memory (in words)” value is listed as “nearly no effect” with male C57BL/6NCrl mice (single subcutaneous 0.01 mg/kg), “pronounced effect on spatial memory” in the experiment on male C57BL/6NCrl mice (single subcutaneous 0.03 mg/kg) and “completely no effect” with male C57BL/6NCrl mice (single subcutaneous 0.1 mg/kg). Further, the “number of correct words recalled after 3rd trial (in words)” value with healthy adults (100 mcg) is “significant increase in the number of correct words recalled”. The molecule further displayed a placebo-corrected fold-improvement in the experiment with healthy adults (100 mcg, 3rd trial, healthy volunteer study) of 1.12. The “number of words on the 3rd trial” value in the experiment on healthy adults (100 mcg, young volunteers) amounted to 23.7 words. In addition, in the experiment on healthy adults (300 mcg and 1000 mcg, FIG. 2), the “number of correct words recalled (in words)” value was “some effect”. In addition, the “improvement in number of correct words recalled, average” value with healthy adults (single oral dose 100 mcg, after the third trial) worked out at 2.5 words.
